Here are results for 7 compounds from EP4088722A1, “PHARMACEUTICAL COMPOSITIONS, USES THEREOF AND METHODS FOR TREATMENT OF GENETIC DISEASES CAUSED BY INTRONIC SPLICE-ACCEPTOR SITE MUTATIONS” (priority 2021, dated 2022).

Series [1] deals with AGA minigene construct without luciferase (c.128-2A>G). The series is described as follows: cells. It counts as cell-based, human. The following applies: 24 h; for fold induction at 7500 µM: Homo sapiens, HEK-293T, read-out: increase in the correctly spliced product (exons 2 and 3); for changes in the splicing (correctly spliced product): 7.5 mM, qRT-PCR. Here is the method: (§1) For qPCRs, total RNA was isolated with peqGOLD TriFast™ (VWR, Darmstadt, Germany) and included a DNAse step. Total RNA (1-3 µg) were reverse transcribed with 150 fmol oligo(dT) primers and M-MuLV reverse transcriptase (NEB, Frankfurt, Germany) in a total volume of 45 µL. Real-time quantitative PCRs were performed using the CFX Connect Real-Time PCR Detection System (Bio-Rad, Munich, Germany). Annealing temperature was 60°C for all primers. The reactions were done as duplicates with 0.8 µL cDNA in a total volume of 10 µL using iTaq-TMUniversal SYBR Green Supermix (Bio-Rad). PCR products were quantified with the ACt-method. For normalization, the mean of the reference genes B2M, Rpl13a, Ywhaz and TBP was used. Table 2. Sequences of primers used for the quantitative real-time PCR.
RNA was isolated from the cells, reverse transcribed to cDNA, and a qRT-PCR with a fwd primer residing in exon 2 and a reverse primer in the plasmid vector (3'-untranslated region of the resulting RNA) was performed. Thus, amplification of a PCR product of 271 bp is only observed when both exons 2 and 3 are present in the mRNA.

Series [2] relates to AGA-luciferase minigene constructs (c.128-2A>G). The series is described as follows: AGA luciferase minigene splicing assay in AGU patient fibroblasts. The class given is cell-based, human. The following applies: 24 h; for luciferase readout: increasing amounts; for luciferase activity: 7.5 mM.
For series [3], the system named is endogenous AGA mRNA with exon 2. It counts as cell-based, human. The following applies: 24 h, patient fibroblasts. How it is done:
(§2) Fibroblasts were seeded into 6-well plates and treated with the following compounds: caffeine, theophylline, theobromine, pentoxifylline, doxofylline(1-7.5 mM, solvent H2O; TCI, Eschborn, Germany), luteolin (10-50 µM, solvent DMSO; Biozol, Eching, Germany) or kinetin (10-100 µM, solvent DMSO; TCI, Eschborn,Germany) for 24 h (RNA) or 48 h (protein lysate). Cells were harvested in lysis buffer (50 mM Tris pH 7.4, 150 mM NaCl, 2 mM EDTA, 1% NP-40), supplemented with protease inhibitor cocktail (Sigma-Aldrich). Protein concentrations in the lysates were determined according to the Bradford method.
as §1

Another series deals with AGA mRNA. In words: qRT-PCR of AGA mRNA in control fibroblasts. The class given is cell-based, human. The following applies: 7.5 mM caffeine, 24 h. Here is the method:
as §2, §1

For series [4], the system named is AGA minigene containing the splice variant (c.128-2A>G). The series is described as follows: AGA minigene luciferase splicing assay in AGA knockout HEK293T cells. The following applies: for splicing of the AGA minigene / variant (summary statement): overall statement in the description, across the AGA assays.
Description: HEK293T (human embryonic kidney cells) cells were cultured in Dulbecco's modified Eagle's medium (DMEM) with high glucose, 10% fetal calf serum (FCS), 1 % penicillin/streptomycin (all from Gibco, Thermo Fisher Scientific, Germany). […] Immortalized, hTERT-transformed normal human skin fibroblasts were used as control [(Banning, A.; et al. Identification of Small Molecule Compounds for Pharmacological Chaperone Therapy of Aspartylglucosaminuria. Sci Rep 2016, 6, 37583]. All fibroblasts were cultured in DMEM (high glucose), 10% FCS, 1 % penicillin/streptomycin, 1 % non-essential amino acids and 1 % sodium pyruvate. All cells were grown at 8% CO2 and 37°C.
For transient transfection, cells were seeded onto 12-well plates on the day before transfection. For transfections, 400 ng of expression plasmid DNA and 50 ng of pRL-TK Renilla luciferase control reporter vector (Promega) were transfected using MACSfectin™ (Miltenyi Biotec, Bergisch Gladbach, Germany) according to the manufacturer's protocol. Fibroblasts were transfected with Neon Transfection System (Invitrogen). The following day, the cells were transferred onto 24-well plates, treated with specific substances and harvested after 24 h of treatment in lysis juice for firefly and renilla luciferase assay (PJK GmbH, Kleinblittersdorf, Germany). Determination of firefly and renilla luciferase activity was performed with a Tecan infinite M200 plate reader using 20 µl of lysate and 85 µl of beetle or renilla juice (PJK) as reagents. Relative luciferase activity was calculated by dividing the firefly luciferase activity by the renilla luciferase activity.
This construct contains the splice acceptor site mutation -2A>G in intron 1. If exon 2 is spliced out, altered reading frame in exon 3 produces an early STOP codon and prevents the expression of luciferase. However, if all three exons are correctly spliced, the luciferase ORF is translated in-frame as a fusion protein with the AGA protein sequence coded by exons 1-3.
The next series has as its system AGA activity. The series is described as follows: AGA activity in patient fibroblasts, colorimetric Morgan-Elson assay with AADG as substrate. It counts as cell-based, human. The following applies: 25 µM luteolin, 48 h. How it is done:
as §2
In most experiments, AGA activity was measured fluorimetrically as described in Banning, A.; et al. Sci Rep 2016, 6, 37583. […] In short, 12.5 µl of cell lysate were mixed with 100 nmol AADG, 3.35 µl 0,5 M KH2PO4, pH8, and 0.9% NaCl to reach a total volume of 25 µl. […] The liberated N-acetylglucosamine was measured at 585 nm. […]
Due to these encouraging data, the AGA activity was measured in patient fibroblasts treated with 25 µM luteolin (Figure 10b). Since luteolin acts as a quencher in our standard fluorescence-based AGA activity measurement [Schoefer, L.; Braune, A., FEMS Microbiol Lett 2001, 204, 277-280, and our own observations], we used a colorimetric activity assay [Tikkanen, R.; et al., DNA Cell Biol 1995, 14, 305-312] that is less sensitive but not subject to quenching by luteolin.

Setting [5] is: 7.5 mM, 24 h, compared to untreated cells.

For the compound `Cn1c(=O)c2c(ncn2C)n(C)c1=O` [caffeine, 1,3,7-trimethylxanthine], the fold induction at 7500 µM in series [1] was around 20. Also, in series [2], the luciferase readout entry is on record as “significant, dose dependent increase in the luciferase readout”. In series [3] (7.5 mM caffeine), the “endogenous AGA mRNA splicing products that contain exons 2 and 3” value is recorded as “significantly increased to a level that corresponds to the untreated control fibroblasts”. In the series on AGA mRNA, the “AGA mRNA” value was “increase in the AGA mRNA in control fibroblasts”. Moreover, the luciferase activity result in series [4] (setting [5]) is “highest increase”.
As for `Cn1c(=O)c2c(ncn2CC2OCCO2)n(C)c1=O` [doxofylline, 7-(1,3-dioxolan-2-ylmethyl)-1,3-dimethylpurine-2,6-dione], the “changes in the splicing (correctly spliced product)” value in series [1] is reported as “did not produce significant changes in the splicing”. Further, the luciferase activity result in series [2] is listed as “failed to do so”; in series [4] (setting [5]) it was “significantly increased luciferase activity”. Moreover, in series [4], the “splicing of the AGA minigene / variant (summary statement)” value is “consistently failed to exert any significant effects”.
For the compound `c1coc(CNc2ncnc3[nH]cnc23)c1` [kinetin], the “endogenous AGA mRNA with exon 2” value in series [3] (kinetin 50 µM) is recorded as “no significant increase”. Besides, the luciferase activity entry in series [4] (kinetin, lower concentrations (from 10 µM, below 100 µM), 24 h) is given as “only minor effects”. Moreover, the “splicing of the AGA minigene / variant (summary statement)” value in series [4] is reported as “no systematic positive effect”.
Take `O=c1cc(-c2ccc(O)c(O)c2)oc2cc(O)cc(O)c12` [luteolin, 3',4',5,7-tetrahydroxyflavone]: in the series with AGA activity, the AGA activity result is reported as “significant increase in the AGA activity”. The fold induction at 25 µM in series [3] (Homo sapiens, Fibroblast, luteolin 25 µM, read-out: increase of endogenous AGA mRNA with exon 2) was around 2.5. Moreover, in series [4] (25 µM luteolin, 24 h, most efficient concentration), the “increase in luciferase activity” value is given as 5-6 fold. In addition, the luciferase activity result in series [4] (all luteolin concentrations, 10 µM - 50 µM, 24 h) is listed as “significant increase in luciferase activity”. Moreover, the “luciferase expression in Western blot” value in series [4] (lysates of the luteolin/kinetin luciferase assay) is reported as “strong luciferase expression”.
As to `CC(=O)CCCCn1c(=O)c2c(ncn2C)n(C)c1=O` [pentoxifylline, 3,7-dimethyl-1-(5-oxohexyl) xanthine], the fold induction at 7500 µM in series [1] lay within 5 to 10. Also, the results for the luciferase activity entry in series [2] and in series [4] (setting [5]) were “significantly increased the luciferase activity” and “significantly increased luciferase activity”, respectively.
Take `Cn1cnc2c1c(=O)[nH]c(=O)n2C` [theobromine, 3,7-dimethylxanthine]: in series [1], the “changes in the splicing (correctly spliced product)” value is on record as “did not produce significant changes in the splicing”. The luciferase activity result in series [2] was “failed to do so”; in series [4] (four concentrations 1 mM - 7.5 mM, 24 h, compared to untreated cells) it was “non-significant changes”.
Take `Cn1c(=O)c2[nH]cnc2n(C)c1=O` [theophylline, 1,3-dimethylxanthine]: the fold induction at 7500 µM in series [1] was 5 to 10. For the same compound, the luciferase readout entry in series [2] is “significant, dose dependent increase in the luciferase readout”. For the same compound, the luciferase activity result in series [4] (setting [5]) is given as “significantly increased luciferase activity”.
